We go through 21 compounds from patent US6344351B2, “(R)-transaminase from arthrobacter” (Kaneka Corporation, priority 1995, dated 2002).

Where two headings read alike, the source gives them in different places.

Test [1] deals with Arthrobacter species KNK168 strain. The test can be described thus: Inducer added to culture medium; (R)-DMA formation by the separated cells. In kind it is cell-based. Conditions: cells reacted 30° C., 20 hours, 1% 1-(3,4-dimethoxyphenyl)-2-propanone, 1% (RS)-1-methylpropylamine. How it is done:
When culturing the Arthrobacter species KNK168 strain by the method described in Example 1, (RS)-1-methylpropylamine, (RS)-1-methylbutylamine, (RS)-3-amino-2,2-dimethylbutane, (RS)-2-amino-1-butanol, or (RS)-1-phenylethylamine was added to the medium in place of (R)-1-(3,4-dimethoxyphenyl)-2-aminopropane ((R)-DMA). The cells were separated from the medium, and the reaction was carried out at 30° C. for 20 hours using the above cells in a reaction mixture containing 1% of 1-(3,4-dimethoxyphenyl)-2-propanone and 1% of (RS)-1-methylpropylamine.

The test system is the same in test [2]. Kind of test: Amino donor test; (R)-DMA formation by cultured cells. It is filed as cell-based. How it is done: The cultured cells were harvested by centrifugation, and the harvested cells were suspended in a reaction mixture (pH 8.5) containing 1% of 1-(3,4-dimethoxyphenyl)-2-propanone, […] of Triton X-100, and 1% of an amino donor shown in Table 2. The components were reacted at 35° C. for 20 hours.

Test [3] has as its target T1, ω-amino acid transaminase derived from Pseudomonas sp. F-1 (Pseudomonas putida, UniProt P28269).
T1 sequence (P28269 1-449): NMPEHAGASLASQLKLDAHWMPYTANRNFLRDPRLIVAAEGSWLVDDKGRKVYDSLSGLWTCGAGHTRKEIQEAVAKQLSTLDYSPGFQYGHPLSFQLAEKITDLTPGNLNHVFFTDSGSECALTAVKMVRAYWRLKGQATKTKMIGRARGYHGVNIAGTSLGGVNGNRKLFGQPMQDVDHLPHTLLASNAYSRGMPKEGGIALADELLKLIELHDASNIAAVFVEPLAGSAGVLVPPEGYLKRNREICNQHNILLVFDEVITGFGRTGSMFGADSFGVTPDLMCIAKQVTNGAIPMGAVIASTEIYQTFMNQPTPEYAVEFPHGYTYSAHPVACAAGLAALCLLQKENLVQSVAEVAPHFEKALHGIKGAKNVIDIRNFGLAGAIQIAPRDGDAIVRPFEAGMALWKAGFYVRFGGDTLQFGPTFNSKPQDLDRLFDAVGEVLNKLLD
More on the design: concentration or dose not given beside the values. To be noted: purified enzyme, literature data; pyruvic acid as amino acceptor; cited from earlier work.

Test [4] relates to (R)-form-specific transaminase of Arthrobacter sp. KNK168. Kind of test: Reactivity of purified transaminase of present invention to amino compounds, pyruvic acid as amino acceptor. It is filed as biochemical. More on the design: Transaminase of Present Invention (Relative Activity: %), Substrate Specificity: concentration or dose not given beside the values. Conditions: for Transaminase of Present Invention (Relative Activity: %), Substrate Specificity: pyruvic acid as amino acceptor. The text has this: (§1) The differences with the ω-amino acid transaminase derived from Pseudomonas sp. F-1 (Agric. Biol. Chem., 42, 2363-2367 (1978), Agric. Biol. Chem., 43, 1043-1048 (1979), J. Biol. Chem., 258, 2260-2265 (1983)) which have been well studied among the ω-amino acid transaminases, and with the benzylamine transaminase of Okada et al. (Japanese Patent Laid-Open No. Hei 6-178685) are summarized and shown in Table 2. In a case of the transaminase action in the present invention, the data of the purified enzyme are used, and in cases of those by other two enzymes, the data of the purified enzymes which are disclosed in each of the literature publication and patent publication are used. Pyruvic acid is used as an amino acceptor in all cases.
Using the purified enzyme obtained in Example 9, reactivities to various amino compounds when using pyruvic acid as an amino acceptor were evaluated. 150 μl of a solution of the purified enzyme diluted ten-folds was added to 150 μl of a substrate solution (0.1 M potassium phosphate buffer (pH 8.3), 40 mM pyruvic acid, 0.1 mM pyridoxal phosphate, and 40 mM various amino compounds). The components were reacted at 30° C. for 1 hour. The reaction tube was transferred into boiling water to stop the reaction, and, thereafter, a part of the reaction mixture was diluted five-folds. Ten μl of 0.1 M boric acid buffer (pH 8.0) and 20 μl of an ethanol solution of 80 mM of 4-fluoro-7-nitro-2,1,3-benzoxadiazole (NBD-F) were added to 10 μl of the above-mentioned diluted reaction mixture. The components were reacted at 60° C. for 1 minute, and, thereafter, the reaction mixture was ice-cooled, and 460 μl of 5 mM HCl was added thereto. This reaction mixture was analyzed by high-performance liquid chromatography using fine pack C18-5 column and using a 0.1 M potassium phosphate buffer (pH 6.5) and CH3CN (90:10) as an eluent solution to detect formation of alanine-NBD using excitation wavelength of 470 nm and using detection wave of […]. The results thereof are shown in Table 8 in terms of relative activity in the case of using […] as a substrate.

For test [5] the test system is unchanged. Kind of test: Influence of reaction inhibitors on purified transaminase of present invention. It is filed as biochemical. Conditions: for Transaminase of Present Invention (Relative Activity: %) with inhibitor: inhibitor 1 mM, without addition = 100.
From the text: as §1

Test [6] has as its target T1, ω-amino acid transaminase derived from Pseudomonas sp. F-1. To be noted: inhibitor 1 mM; without addition = 100; cited from earlier work.
Test [7] relates to transaminase (intracellular enzyme) of Arthrobacter sp. KNK168. The test can be described thus: Activity of the transaminase (intracellular enzyme) against typical substrates of ω-aminotransferases. In kind it is biochemical.
In test [8] the test system is benzylamine transaminase of Okada et al. More on the design: Transaminase of Okada et al. (Relative Activity: %), Substrate Specificity: concentration or dose not given beside the values. Conditions: cited from earlier work; for Transaminase of Okada et al. (Relative Activity: %), Substrate Specificity: purified enzyme, patent publication data, pyruvic acid as amino acceptor.

For test [9] the test system is unchanged. To be noted: without addition = 100, cited from earlier work.
Test [10] relates to transaminase derived from Arthrobacter. Kind of test: Usability as amino group donor, transaminase of present invention. In kind it is biochemical. Conditions: +/− without printed key, or words. The text has this:
Further, the transaminase derived from Arthrobacter which can be used in the present invention is different from the above-mentioned enzyme derived from Brevibacterium in many other aspects.

Where [11] appears, read: amino acceptor 2-ketoglutaric acid, (R)-1-phenylethylamine/pyruvic acid control = 100.

Consider `CCCC(C)N` (racemic) [(RS)-1-Methylbutylamine], for which, in test [1], the “(R)-DMA Formed (%), inducer in culture medium” value (“(R)-DMA Formed (%), inducer” below) was 13.0%. The “function as amino donor” value in test [2] is “functioned as amino donors”.
As to `CCC(C)N` (racemic) [(RS)-1-Methylpropylamine], the “(R)-DMA Formed (%), inducer” value in test [1] is 22.3%. In test [2], the “function as amino donor” value is recorded as “functioned as amino donors”. The “(R)-DMA Formed (%), amino group donor” value in test [2] (1% amino donor, 1% 1-(3,4-dimethoxyphenyl)-2-propanone, Triton X-100, pH 8.5, 35° C., 20 hours) turned out to be 28.2%.
As for `CC(N)c1ccccc1` (racemic) [(RS)-1-Phenylethylamine], the “(R)-DMA Formed (%), inducer” value in test [1] amounted to 8.0%. Moreover, in test [2], the “function as amino donor” value is on record as “most highly preferable”.
On to `CCC(N)CO` (racemic) [(RS)-2-Amino-1-butanol], for which the “(R)-DMA Formed (%), inducer” value in test [1] came out at 12.9%.
Take `CC(N)C(C)(C)C` (racemic) [(RS)-3-Amino-2,2-dimethylbutane]: the “(R)-DMA Formed (%), inducer” value in test [1] was 18.6%.
In the case of `CC(N)CC(=O)O` (racemic) [DL-3-Aminobutyric acid], in [3], the “ω-Amino Acid Transaminase (Relative Activity: %), Substrate Specificity” value is reported as 96%. Further, the “action of the transaminase derived from Arthrobacter on the substrate” value (from here on “action of the transaminase derived”) in [4] is recorded as “does not act”. Also, in test [4] (purified enzyme), the “Transaminase of Present Invention (Relative Activity: %), Substrate Specificity” value came to 0%.
In the case of `NC1C=CC=C(C(=O)O)C1` (racemic) [Gabaculine], the “Transaminase of Present Invention (Relative Activity: %) with inhibitor” value in test [5] turned out to be 24%. In addition, in [6], the “ω-Amino Acid Transaminase (Relative Activity: %) with inhibitor” value is 0%.
As for `NCCCC(=O)O` [4-Aminobutyric acid], the “Relative Activity (%) as amino donor” value in test [7] (setting [11]) stood at 0%. Moreover, the “ω-Amino Acid Transaminase (Relative Activity: %), Substrate Specificity” value in [3] is listed as 40%. Further, the “action of the transaminase derived” value in test [4] is “does not act”. Further, the “Transaminase of Present Invention (Relative Activity: %), Substrate Specificity” value in [4] (purified enzyme) was 0%.
Regarding `COc1ccc(C[C@@H](C)N)cc1OC` [(R)-DMA, (R)-1-(3,4-dimethoxyphenyl)-2-aminopropane], the “(R)-DMA Formed (%), inducer” value in [1] was determined as 0.9%.
As for `NCc1ccccc1` [Benzylamine], the “ω-Amino Acid Transaminase (Relative Activity: %), Substrate Specificity” value in test [3] is 45%. Moreover, the “action of benzylamine transaminase on substrate” value in test [8] (in the presence of pyruvic acid) is “strongly acts”. Moreover, in test [8], the “Transaminase of Okada et al. (Relative Activity: %), Substrate Specificity” value is 100%. Further, the “Relative Activity (%) of amino compounds” value in test [4] (purified enzyme, 40 mM amino compound in substrate solution, 40 mM pyruvic acid, pH 8.3, 30° C., 1 hour, (R)-1-phenylethylamine = 100) is reported as 0.8%. For the same compound, the “Transaminase of Present Invention (Relative Activity: %), Substrate Specificity” value in test [4] (purified enzyme) turned out to be 0.8%.
Take `O=S(=O)([O-])[O-].[Cu+2]` [CuSO4]: in [5], the “Transaminase of Present Invention (Relative Activity: %) with inhibitor” value is recorded as 44%. The “Transaminase of Okada et al. (Relative Activity: %) with inhibitor” value in test [9] (inhibitor 0.5 mM) is listed as 5%.
As to `NO` [Hydroxylamine], in [5], the “influence of reaction inhibitor on the transaminase derived from Arthrobacter” value is given as “affected only a little” and the “Transaminase of Present Invention (Relative Activity: %) with inhibitor” value came to 17%. Moreover, the “Transaminase of Okada et al. (Relative Activity: %) with inhibitor” value in [9] (inhibitor 0.1 mM) is 30%. For the same compound, the “ω-Amino Acid Transaminase (Relative Activity: %) with inhibitor” value in test [6] is 0%.
`NNc1ccccc1` [Phenylhydrazine]: in test [5], the “influence of reaction inhibitor on the transaminase derived from Arthrobacter” value is “affected only a little” and the “Transaminase of Present Invention (Relative Activity: %) with inhibitor” value is given as 82%. Besides, in test [9] (inhibitor 1 mM), the “Transaminase of Okada et al. (Relative Activity: %) with inhibitor” value was 27%. Besides, the “ω-Amino Acid Transaminase (Relative Activity: %) with inhibitor” value in test [6] was 6%.
In the case of `NCCCCN` [Putrescine], the “Relative Activity (%) as amino donor” value in [7] (setting [11]) was 0%. Moreover, the “ω-Amino Acid Transaminase (Relative Activity: %), Substrate Specificity” value in [3] is given as 55%. Further, in [8], the “Transaminase of Okada et al. (Relative Activity: %), Substrate Specificity” value is 0%. The “action of the transaminase derived” value in test [4] is recorded as “does not act”. The “Transaminase of Present Invention (Relative Activity: %), Substrate Specificity” value in [4] (purified enzyme) was determined as 0%.
For `Cl.N` [ammonium chloride], the “Amino Group Donor, Transaminase of Present Invention” value in [10] was “cannot be used as an amino donor”.
`N[C@@H](CC(=O)O)C(=O)O` [aspartic acid]: the “Amino Group Donor, Transaminase of Present Invention” value in test [10] was “cannot be used as an amino donor”.
On the same count and under the same terms, with `N[C@@H](CCC(=O)O)C(=O)O` [glutamic acid] the entry was “cannot be used as an amino donor”.
Turning to `CCCCN` [n-Butylamine], the “ω-Amino Acid Transaminase (Relative Activity: %), Substrate Specificity” value in test [3] is listed as 60%. For the same compound, in test [8], the “Transaminase of Okada et al. (Relative Activity: %), Substrate Specificity” value is given as 0%. Also, the “action of the transaminase derived” value in test [4] was “does not act”. For the same compound, in test [4] (purified enzyme), the “Transaminase of Present Invention (Relative Activity: %), Substrate Specificity” value was 0%.
As to `O=C(O)c1cc[c]([Hg][Cl])cc1` [p-Chloromercuribenzoic acid], the “Transaminase of Present Invention (Relative Activity: %) with inhibitor” value in test [5] came out at 53%. Besides, the “Transaminase of Okada et al. (Relative Activity: %) with inhibitor” value in test [9] (inhibitor 0.1 mM) is reported as 9%. In test [6], the “ω-Amino Acid Transaminase (Relative Activity: %) with inhibitor” value was 100%.
Turning to `NCCC(=O)O` [β-Alanine], the “activity of the transferase to amino donor” value in test [7] is recorded as “does not act”. For the same compound, in [7] (amino acceptor pyruvic acid, (R)-1-phenylethylamine control = 100), the “Relative Activity (%) as amino donor” value came out at 0%. In addition, in [3], the “ω-Amino Acid Transaminase (Relative Activity: %), Substrate Specificity” value is listed as 100%. For the same compound, in [8], the “Transaminase of Okada et al. (Relative Activity: %), Substrate Specificity” value was 0%. In test [4], the “action of the transaminase derived” value is “does not act”. In addition, in test [4] (purified enzyme), the “Transaminase of Present Invention (Relative Activity: %), Substrate Specificity” value is given as 0%.
With `NCCc1ccccc1` [β-Phenethylamine], in test [3], the “ω-Amino Acid Transaminase (Relative Activity: %), Substrate Specificity” value was 54%. The “Transaminase of Okada et al. (Relative Activity: %), Substrate Specificity” value in test [8] is recorded as 9%. The “Transaminase of Present Invention (Relative Activity: %), Substrate Specificity” value in test [4] (purified enzyme) is given as 0%.
